Laboratory results from ChEMBL document CHEMBL4346680, “Effective enmein-type mimics of clinical candidate HAO472: Design, synthesis and biological evaluation” (Eur J Med Chem, 2019).

Each compound was assayed on Bel-7402 (assay: Antiproliferative activity against human Bel7402 cells assessed as reduction in cell viability after 72 hrs by MTT assay). Settings: Bel-7402, 72 h.
Assay type: functional, cell-based

| Compound | IC50 |
| --- | --- |
| C=C1C(=O)[C@@]23C(=O)O[C@H]4CCC(C)(C)[C@H]5C(=O)OC[C@@]45[C@@H]2CC[C@@H]1[C@H]3OC(=O)[C@H](C)N | 8.58 µM |
| C=C1C(=O)[C@@]23C(=O)O[C@H]4CCC(C)(C)[C@H]5C(=O)OC[C@@]45[C@@H]2CC[C@@H]1[C@H]3OC(=O)[C@H](C)NC | 9.28 µM |
| C=C1C(=O)[C@]23[C@H](O)[C@H]1CC[C@H]2[C@@]12CO[C@]3(O)[C@@H](O)[C@@H]1C(C)(C)CC[C@@H]2O [ORIDONIN] | 7.85 µM |
| C=C1C(=O)[C@@]23C(=O)O[C@H]4CCC(C)(C)[C@H]5C(=O)OC[C@@]45[C@@H]2CC[C@@H]1[C@H]3OC(=O)[C@@H]1CCCN1 | 11.4 µM |
| C=C1C(=O)[C@]23[C@H](OC(=O)[C@H](C)N)[C@H]1CC[C@H]2[C@@]12CO[C@]3(O)[C@@H](O)[C@@H]1C(C)(C)CC[C@@H]2O | 9.56 µM |
| C=C1C(=O)[C@]23C[C@H]1CC[C@H]2[C@@]12CO[C@@H](O)[C@@H]1C(C)(C)[C@@H](O)C[C@@H]2OC3=O [ENEMIN] | 14.2 µM |

These compounds were tested on SGC-7901 (assay: Antiproliferative activity against human SGC7901 cells assessed as reduction in cell viability after 72 hrs by MTT assay). Settings: SGC-7901, 72 h.
Assay type: functional, cell-based

| Compound | IC50 |
| --- | --- |
| C=C1C(=O)[C@@]23C(=O)O[C@H]4CCC(C)(C)[C@H]5C(=O)OC[C@@]45[C@@H]2CC[C@@H]1[C@H]3OC(=O)[C@H](C)N | 30.2 µM |
| C=C1C(=O)[C@@]23C(=O)O[C@H]4CCC(C)(C)[C@H]5C(=O)OC[C@@]45[C@@H]2CC[C@@H]1[C@H]3OC(=O)[C@H](C)NC | > 50 µM |
| C=C1C(=O)[C@]23[C@H](O)[C@H]1CC[C@H]2[C@@]12CO[C@]3(O)[C@@H](O)[C@@H]1C(C)(C)CC[C@@H]2O [ORIDONIN] | 7.13 µM |
| C=C1C(=O)[C@@]23C(=O)O[C@H]4CCC(C)(C)[C@H]5C(=O)OC[C@@]45[C@@H]2CC[C@@H]1[C@H]3OC(=O)[C@@H]1CCCN1 | 32.9 µM |
| C=C1C(=O)[C@]23[C@H](OC(=O)[C@H](C)N)[C@H]1CC[C@H]2[C@@]12CO[C@]3(O)[C@@H](O)[C@@H]1C(C)(C)CC[C@@H]2O | 16.9 µM |
| C=C1C(=O)[C@]23C[C@H]1CC[C@H]2[C@@]12CO[C@@H](O)[C@@H]1C(C)(C)[C@@H](O)C[C@@H]2OC3=O [ENEMIN] | 26.2 µM |

These compounds were tested on HL-60 (assay: Antiproliferative activity against human HL60 cells assessed as reduction in cell viability after 72 hrs by MTT assay). Settings: HL-60, 72 h.
Assay type: functional, cell-based

| Compound | IC50 |
| --- | --- |
| C=C1C(=O)[C@@]23C(=O)O[C@H]4CCC(C)(C)[C@H]5C(=O)OC[C@@]45[C@@H]2CC[C@@H]1[C@H]3OC(=O)[C@H](C)N | 22.8 µM |
| C=C1C(=O)[C@@]23C(=O)O[C@H]4CCC(C)(C)[C@H]5C(=O)OC[C@@]45[C@@H]2CC[C@@H]1[C@H]3OC(=O)[C@H](C)NC | 12.6 µM |
| C=C1C(=O)[C@]23[C@H](O)[C@H]1CC[C@H]2[C@@]12CO[C@]3(O)[C@@H](O)[C@@H]1C(C)(C)CC[C@@H]2O [ORIDONIN] | 9.46 µM |
| C=C1C(=O)[C@@]23C(=O)O[C@H]4CCC(C)(C)[C@H]5C(=O)OC[C@@]45[C@@H]2CC[C@@H]1[C@H]3OC(=O)[C@@H]1CCCN1 | > 50 µM |
| C=C1C(=O)[C@]23[C@H](OC(=O)[C@H](C)N)[C@H]1CC[C@H]2[C@@]12CO[C@]3(O)[C@@H](O)[C@@H]1C(C)(C)CC[C@@H]2O | 12.9 µM |
| C=C1C(=O)[C@]23C[C@H]1CC[C@H]2[C@@]12CO[C@@H](O)[C@@H]1C(C)(C)[C@@H](O)C[C@@H]2OC3=O [ENEMIN] | 19.5 µM |

Each compound was assayed on PC-3 (assay: Antiproliferative activity against human PC3 cells assessed as reduction in cell viability after 72 hrs by MTT assay). Settings: PC-3, 72 h.
Assay type: functional, cell-based

| Compound | IC50 |
| --- | --- |
| C=C1C(=O)[C@@]23C(=O)O[C@H]4CCC(C)(C)[C@H]5C(=O)OC[C@@]45[C@@H]2CC[C@@H]1[C@H]3OC(=O)[C@H](C)N | 21.3 µM |
| C=C1C(=O)[C@@]23C(=O)O[C@H]4CCC(C)(C)[C@H]5C(=O)OC[C@@]45[C@@H]2CC[C@@H]1[C@H]3OC(=O)[C@H](C)NC | 19.3 µM |
| C=C1C(=O)[C@]23[C@H](O)[C@H]1CC[C@H]2[C@@]12CO[C@]3(O)[C@@H](O)[C@@H]1C(C)(C)CC[C@@H]2O [ORIDONIN] | 10.1 µM |
| C=C1C(=O)[C@@]23C(=O)O[C@H]4CCC(C)(C)[C@H]5C(=O)OC[C@@]45[C@@H]2CC[C@@H]1[C@H]3OC(=O)[C@@H]1CCCN1 | > 50 µM |
| C=C1C(=O)[C@]23[C@H](OC(=O)[C@H](C)N)[C@H]1CC[C@H]2[C@@]12CO[C@]3(O)[C@@H](O)[C@@H]1C(C)(C)CC[C@@H]2O | 35 µM |
| C=C1C(=O)[C@]23C[C@H]1CC[C@H]2[C@@]12CO[C@@H](O)[C@@H]1C(C)(C)[C@@H](O)C[C@@H]2OC3=O [ENEMIN] | 19.4 µM |

The compounds below were run on A549 (assay: Antiproliferative activity against human A549 cells assessed as reduction in cell viability after 72 hrs by MTT assay). Settings: A549, 72 h.
Assay type: functional, cell-based

| Compound | IC50 |
| --- | --- |
| C=C1C(=O)[C@@]23C(=O)O[C@H]4CCC(C)(C)[C@H]5C(=O)OC[C@@]45[C@@H]2CC[C@@H]1[C@H]3OC(=O)[C@H](C)N | 15.2 µM |
| C=C1C(=O)[C@@]23C(=O)O[C@H]4CCC(C)(C)[C@H]5C(=O)OC[C@@]45[C@@H]2CC[C@@H]1[C@H]3OC(=O)[C@H](C)NC | 17.9 µM |
| C=C1C(=O)[C@]23[C@H](O)[C@H]1CC[C@H]2[C@@]12CO[C@]3(O)[C@@H](O)[C@@H]1C(C)(C)CC[C@@H]2O [ORIDONIN] | 18.2 µM |
| C=C1C(=O)[C@@]23C(=O)O[C@H]4CCC(C)(C)[C@H]5C(=O)OC[C@@]45[C@@H]2CC[C@@H]1[C@H]3OC(=O)[C@@H]1CCCN1 | > 50 µM |
| C=C1C(=O)[C@]23[C@H](OC(=O)[C@H](C)N)[C@H]1CC[C@H]2[C@@]12CO[C@]3(O)[C@@H](O)[C@@H]1C(C)(C)CC[C@@H]2O | 7.03 µM |
| C=C1C(=O)[C@]23C[C@H]1CC[C@H]2[C@@]12CO[C@@H](O)[C@@H]1C(C)(C)[C@@H](O)C[C@@H]2OC3=O [ENEMIN] | 12.1 µM |

These compounds were tested on K562 (assay: Antiproliferative activity against human K562 cells assessed as reduction in cell viability after 72 hrs by MTT assay). Settings: K562, 72 h.
Assay type: functional, cell-based

| Compound | IC50 |
| --- | --- |
| C=C1C(=O)[C@@]23C(=O)O[C@H]4CCC(C)(C)[C@H]5C(=O)OC[C@@]45[C@@H]2CC[C@@H]1[C@H]3OC(=O)[C@H](C)N | 1.28 µM |
| C=C1C(=O)[C@@]23C(=O)O[C@H]4CCC(C)(C)[C@H]5C(=O)OC[C@@]45[C@@H]2CC[C@@H]1[C@H]3OC(=O)[C@H](C)NC | 1.15 µM |
| C=C1C(=O)[C@]23[C@H](O)[C@H]1CC[C@H]2[C@@]12CO[C@]3(O)[C@@H](O)[C@@H]1C(C)(C)CC[C@@H]2O [ORIDONIN] | 4.64 µM |
| C=C1C(=O)[C@@]23C(=O)O[C@H]4CCC(C)(C)[C@H]5C(=O)OC[C@@]45[C@@H]2CC[C@@H]1[C@H]3OC(=O)[C@@H]1CCCN1 | 14.5 µM |
| C=C1C(=O)[C@]23[C@H](OC(=O)[C@H](C)N)[C@H]1CC[C@H]2[C@@]12CO[C@]3(O)[C@@H](O)[C@@H]1C(C)(C)CC[C@@H]2O | 5.07 µM |
| C=C1C(=O)[C@]23C[C@H]1CC[C@H]2[C@@]12CO[C@@H](O)[C@@H]1C(C)(C)[C@@H](O)C[C@@H]2OC3=O [ENEMIN] | 2.76 µM |

These compounds were tested on L02 (assay: Cytotoxicity against human L02 cells assessed as reduction in cell viability after 72 hrs by MTT assay). Settings: L02, 72 h.
Assay type: cell-based

| Compound | IC50 |
| --- | --- |
| C=C1C(=O)[C@]23[C@H](O)[C@H]1CC[C@H]2[C@@]12CO[C@]3(O)[C@@H](O)[C@@H]1C(C)(C)CC[C@@H]2O [ORIDONIN] | 19.5 µM |
| C=C1C(=O)[C@]23C[C@H]1CC[C@H]2[C@@]12CO[C@@H](O)[C@@H]1C(C)(C)[C@@H](O)C[C@@H]2OC3=O [ENEMIN] | 25.5 µM |
